Assay [1] addresses T1, Human Vitronectin receptor (av b3) (Homo sapiens, UniProt P05106+P06756).
T1 construct: is purified from human placenta; from tissue; host or cells: human placenta
Description: Human Vitronectin-Vitronectin Receptor (av b3) ELISA Assay (Vn/VnR). Type of assay: binding. Particulars: Example 30, G # table.
Description: Human vitronectin (Vn) is isolated from human plasma and purified by affinity chromatography by the method of Yatohgo et. al., (Cell Structure and Function 13: 281-292 [1988]).
Human vitronection receptor (VnR) is purified from human placenta by the method of Pytela et al., (Methods Enzymol., 144: 475 [1987]). Alternatively the av b3 receptor can be purified from some cell lines (e.g., human embryonic kidney 293 cells) transfected with DNA sequences for both the av and b3 subunits. The subunits are purified by employing octylglucoside extraction followed by Con-A, Heparin-Sepharose, and S-300 Chromatography.
This mouse Mab is specific for the b3 subunit of the vitronectin receptor.
Rabbit Fab 2 anti-mouse Fc fragment horse radish peroxidase conjugate (anti-MuFc HRP) is obtained from PelFreeze (cat. no. 715305-1).
Maxisorp microtiter plates are coated with 2 mg/ml human vitronectin dissolved in PBS (50 ml/well) and stored overnight at 4° C. The plates are washed two times with PBS-0.05% Tween-20 (wash buffer) and blocked by incubating with about 150 ml/well of assay buffer (1%, BSA [RIA grade or better] in 50 mM Tris-HCl, 100 mM NaCl, 1 mM MgCl2, CaCl2, MnCl2 pH 7.4) for 60 minutes. […] The blocked plates are emptied and 25 ml/well of inhibitor or standard solution is added to each well. Twenty-five ml of a 30 mg/ml solution of purified av b3 in assay buffer is pipetted into the coated plate. The final concentration of receptor in the assay well is about 15 mg/ml. The plate is incubated on a shaker for 60 minutes. Meanwhile, for each microtite plate, 6 ml buffer solution containing 1.5 mg/ml of mouse monoclonal antibody specific for b3 is prepared. To this solution is added ml of the secondary antibody, which is anti-mouse-Fc-HRP antibody conjugate. For example, for one plate, prepare 6 ml of a 1.5 mg/ml mouse Mab solution to which is added 1 ml of anti-mouse-Fc-HRP antibody stock, (this represents a 1:6000 dilution of the antibody-HRP conjugate). This mixture is allowed to incubate during the receptor-inhibitor incubation. The assay plates are washed 4 times with PBS-Tween and 50 ml/well of the antibody mixture is then pipetted into the plate for a 60 minute incubation. The plate is washed 4 times and the color reaction is developed with 50 ml/well of 0.67 mg/ml o-phenyldiamine in PBS containing 0.012% H2 O2. Alternatively, 16 mM citric acid, 50 mM Na2 PO4 at pH 5.0 can be used as a substrate buffer. The reaction is stopped with 50 ml/well 1 M H2 SO4. The plates are read at 492-405 nm and the data analyzed by four-parameter fit.

In another assay the target is T2, GP IIb IIIa (Homo sapiens, UniProt P05106+P08514).
T2 construct: from tissue; host or cells: outdated human platelets
Description: Fibrinogen-GP IIb IIIa Receptor ELISA Binding Assay (Fg/IIbIIIa). In outline:
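Purified human platelet GP IIb IIIa binding to immobilised purified fibrinogen was run with compound at room temperature for 1 h. IC50 values were determined.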
In general terms: An ELISA detects its analyte on a solid surface through an enzyme-linked reagent.

The test system of assay [2] is human platelet rich plasma (PRP). Description: In Vitro Human Platelet Aggregation Assay (PA). Type of assay: cell-based. How it is done:
In addition to the GPIIb IIIa ELISA assay, platelet aggregation assays may be performed in human platelet rich plasma (PRP). […] The blood is centrifuged at 160×g for 10 min at 22° C. and then allowed to stand for 5 min after which the PRP is decanted. Platelet poor plasma (PPP) is isolated from the remaining blood after centrifugation at 2000×g for 25 min. The platelet count of the PRP is adjusted to ca. 300,000 per microliter with PPP.
A 225 mL aliquot of PRP plus 25 mL of either a dilution of the test sample or a control (PBS) is incubated for 5 min in a Chrono-log Whole Blood Aggregometer at 25° C. An aggregating agent (collagen, 1 mg/ml; U46619, 100 ng/ml; or ADP, 8 mM) is added and the platelet aggregation recorded.
Platelet aggregation assays are performed in human platelet rich plasma (PRP). […] The blood is centrifuged at 160×g for 10 minutes at 22° C. and allowed to stand for 5 minutes after which the PRP is decanted. Platelet poor plasma (PPP) is isolated from the remaining blood after centrifugation at 2000×g for 25 minutes. The platelet count of the PRP is diluted to about 300,000 platelets per microliter with PPP.
A 225 ml aliquot of PRP plus 25 ml of either a dilution of the test inhibitor sample or a control (PBS) is incubated for 5 minutes in a Chrono-log Whole Blood Aggregometer at 25° C. An aggregating agent (collagen, 1 mg/ml; U46619, 100 ng/ml; or ADP, 17 mM) is added and the transmission is recorded.

Where [3] appears, read: Example 29, Cmpd # 1-105, read-out: IC50 Fg/IIbI.
[4] abbreviates: Example 30, G # table, read-out: IC50 (μM) Fg/IIbIIIa.
Setting [5] is: Homo sapiens, Platelet, citrate, read-out: PA IC50 (μM) (citrate).
The mark [6] stands for this setting: Homo sapiens, Platelet, heparin, read-out: PA IC50 (μM) (heparin).
[7] abbreviates: Examples 29 and 30, Cmpd # tables, read-out: IC50 (μM) Fg/IIbIIIa.

Structures can show the parent of a compound that is named as a salt. Where two headings read alike, the source gives them in different places. Where only a bound is given, the exact number is not on record here.

T1 sequence (P06756 31-889 limits assumed): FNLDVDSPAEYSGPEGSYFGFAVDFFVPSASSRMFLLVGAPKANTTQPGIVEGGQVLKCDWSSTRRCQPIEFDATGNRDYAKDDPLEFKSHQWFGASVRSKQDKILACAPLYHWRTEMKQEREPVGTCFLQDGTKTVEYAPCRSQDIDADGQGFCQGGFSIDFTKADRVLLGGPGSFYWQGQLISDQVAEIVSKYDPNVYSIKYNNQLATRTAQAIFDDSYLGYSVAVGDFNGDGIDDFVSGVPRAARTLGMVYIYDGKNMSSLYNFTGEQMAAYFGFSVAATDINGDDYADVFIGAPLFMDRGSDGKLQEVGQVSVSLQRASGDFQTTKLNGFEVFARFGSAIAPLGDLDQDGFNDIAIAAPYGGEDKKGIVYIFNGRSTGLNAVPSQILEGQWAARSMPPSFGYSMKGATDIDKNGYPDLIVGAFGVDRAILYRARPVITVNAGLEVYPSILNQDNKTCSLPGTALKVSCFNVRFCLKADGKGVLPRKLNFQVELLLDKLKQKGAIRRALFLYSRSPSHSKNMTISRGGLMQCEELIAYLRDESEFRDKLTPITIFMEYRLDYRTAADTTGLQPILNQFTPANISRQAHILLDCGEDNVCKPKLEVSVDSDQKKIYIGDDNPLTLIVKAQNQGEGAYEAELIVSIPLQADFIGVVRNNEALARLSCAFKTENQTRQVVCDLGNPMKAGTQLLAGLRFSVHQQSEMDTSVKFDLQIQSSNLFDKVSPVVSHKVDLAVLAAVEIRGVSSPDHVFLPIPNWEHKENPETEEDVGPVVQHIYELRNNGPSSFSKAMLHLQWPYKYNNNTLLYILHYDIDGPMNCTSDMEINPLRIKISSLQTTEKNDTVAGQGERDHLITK
T1 sequence (P06756 891-1048 partner limits assumed): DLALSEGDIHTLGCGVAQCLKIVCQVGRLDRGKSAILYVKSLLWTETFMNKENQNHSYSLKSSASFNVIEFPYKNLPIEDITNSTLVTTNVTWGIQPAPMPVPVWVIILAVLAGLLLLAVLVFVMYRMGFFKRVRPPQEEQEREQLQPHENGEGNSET
T1 sequence (P05106 27-788): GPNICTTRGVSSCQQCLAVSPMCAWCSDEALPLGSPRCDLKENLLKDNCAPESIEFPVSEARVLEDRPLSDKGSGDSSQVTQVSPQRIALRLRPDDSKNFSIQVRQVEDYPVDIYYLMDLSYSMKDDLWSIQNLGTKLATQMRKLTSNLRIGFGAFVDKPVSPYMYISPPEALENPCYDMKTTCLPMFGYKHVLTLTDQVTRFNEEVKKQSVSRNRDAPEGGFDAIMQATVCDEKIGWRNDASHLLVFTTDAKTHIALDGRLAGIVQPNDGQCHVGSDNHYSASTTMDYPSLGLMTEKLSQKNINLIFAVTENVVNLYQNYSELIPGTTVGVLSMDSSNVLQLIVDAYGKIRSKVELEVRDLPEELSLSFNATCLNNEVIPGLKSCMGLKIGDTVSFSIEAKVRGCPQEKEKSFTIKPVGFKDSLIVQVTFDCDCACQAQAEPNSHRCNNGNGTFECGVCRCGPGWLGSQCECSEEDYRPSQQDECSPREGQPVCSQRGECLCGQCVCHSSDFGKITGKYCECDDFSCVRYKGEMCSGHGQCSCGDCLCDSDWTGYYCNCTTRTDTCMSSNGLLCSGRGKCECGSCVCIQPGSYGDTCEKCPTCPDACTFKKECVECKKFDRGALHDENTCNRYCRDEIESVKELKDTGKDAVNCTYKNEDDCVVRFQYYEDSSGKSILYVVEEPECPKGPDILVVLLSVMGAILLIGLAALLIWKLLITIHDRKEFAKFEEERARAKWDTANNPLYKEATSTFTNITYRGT
T2 sequence (P08514 32-887 limits assumed): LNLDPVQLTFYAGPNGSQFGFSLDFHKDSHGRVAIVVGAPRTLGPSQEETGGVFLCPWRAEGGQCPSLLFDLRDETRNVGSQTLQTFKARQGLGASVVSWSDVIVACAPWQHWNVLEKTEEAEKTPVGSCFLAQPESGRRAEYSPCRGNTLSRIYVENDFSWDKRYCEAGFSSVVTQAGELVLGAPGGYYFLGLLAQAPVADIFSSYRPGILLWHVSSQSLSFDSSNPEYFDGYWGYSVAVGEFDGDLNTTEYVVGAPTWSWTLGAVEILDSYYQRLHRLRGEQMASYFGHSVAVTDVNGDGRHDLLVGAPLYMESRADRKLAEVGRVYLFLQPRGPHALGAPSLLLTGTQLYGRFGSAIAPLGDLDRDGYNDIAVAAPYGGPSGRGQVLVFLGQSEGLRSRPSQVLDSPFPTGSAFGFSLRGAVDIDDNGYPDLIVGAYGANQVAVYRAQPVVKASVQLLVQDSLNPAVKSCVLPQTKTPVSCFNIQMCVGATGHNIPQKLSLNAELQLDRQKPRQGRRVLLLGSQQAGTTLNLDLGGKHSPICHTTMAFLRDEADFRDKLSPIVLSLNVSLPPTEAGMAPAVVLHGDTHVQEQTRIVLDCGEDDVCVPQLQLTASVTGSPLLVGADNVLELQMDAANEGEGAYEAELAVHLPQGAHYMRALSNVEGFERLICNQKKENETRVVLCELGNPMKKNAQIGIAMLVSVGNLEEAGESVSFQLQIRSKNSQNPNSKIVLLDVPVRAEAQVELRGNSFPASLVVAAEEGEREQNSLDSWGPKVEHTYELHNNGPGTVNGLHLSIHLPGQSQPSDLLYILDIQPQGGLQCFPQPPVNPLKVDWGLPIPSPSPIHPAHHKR
T2 sequence (P08514 891-1039 partner limits assumed): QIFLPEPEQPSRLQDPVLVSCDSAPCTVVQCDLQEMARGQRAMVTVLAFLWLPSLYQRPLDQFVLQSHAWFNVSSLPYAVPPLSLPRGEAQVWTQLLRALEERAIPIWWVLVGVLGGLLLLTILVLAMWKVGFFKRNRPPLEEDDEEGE
T2 sequence (P05106 27-788): as the sequence (P05106 27-788) above

Regarding `N=C(N)NCCCc1ccc2c(c1)C(=O)N(CCC(=O)O)CC(=O)N2` [Cmpd 2], the IC50 in assay [1] was > 10 µM; at GP IIb IIIa (setting [3]), 0.714 µM; on GP IIb IIIa (setting [4]), 0.714 µM; in assay [2] (setting [5]), > 5 µM.

With `CN1C(=O)CN(CCC(=O)O)C(=O)c2cc(C#CCCNC(=N)N)ccc21` [Cmpd 22], the IC50 was > 10 µM in assay [1], 0.14 µM on GP IIb IIIa (setting [3]), 0.14 µM on GP IIb IIIa (setting [4]) and 8.96 µM in assay [2] (setting [5]).

As to `CN1C(=O)CN(CCC(=O)O)C(=O)c2cc(C#CCCCNC(=N)N)ccc21` [Cmpd 34, 1-methyl-4-(2-carboxyethyl)-7-(5-guanidino-1-pentynyl)-3,4-dihydro-1H-1,4-benzodiazepine-2,5-dione trifluroacetate], the IC50 in assay [1] is > 10 µM; at GP IIb IIIa (setting [3]), 0.0036 µM; on GP IIb IIIa (setting [4]) it was 0.0036 µM; in assay [2] (setting [5]), 3.1 µM; in assay [2] (setting [6]) it was 7.5 µM.

`NCCCC#Cc1ccc2c(c1)C(=O)N(CCC(=O)O)CC(=O)N2Cc1cccc([N+](=O)[O-])c1` [Cmpd 35, 1-(3-nitrobenzyl)-4-(2-carboxyethyl)-7-(5-amino-1-pentynyl)-3,4-dihydro-1H-1,4-benzodiazepine-2,5-dione trifluroacetate]: the IC50 in assay [1] was > 10 µM; at GP IIb IIIa (setting [3]), 0.013 µM; on GP IIb IIIa (setting [4]) it was 0.013 µM; in assay [2] (setting [5]), 2.4 µM; in assay [2] (setting [6]) it was 8 µM; in assay [2] (heparin, read-out: PA IC50 (μM) (heparin)), 9.53 µM.

For the compound `CN1C(=O)CN(CCC(=O)O)C(=O)c2cc(C#CCCCCNC(=N)N)ccc21` [Cmpd 42, 1-(methyl)-4-(2-carboxyethyl)-7-(6-guanidino-1-hexynyl)-3,4-dihydro-1H-1,4-benzodiazepine-2,5-dione trifluroacetate], the IC50 was > 10 µM in assay [1], 0.06 µM at GP IIb IIIa (setting [3]), 0.009 µM on GP IIb IIIa (setting [4]) and 2.66 µM in assay [2] (setting [5]).

As for `CN1C(=O)CN(CCC(=O)O)C(=O)c2cc(C#Cc3ccc(CN)cc3)ccc21` [Cmpd 43, 1-(methyl)-4-(2-carboxyethyl)-7-[4-(aminomethyl)phenyl]ethynyl-3,4-dihydro-1H-1,4-benzodiazepine-2,5-dione trifluroacetate], the IC50 was > 10 µM in assay [1]; 0.012 µM at GP IIb IIIa (setting [3]); 0.012 µM at GP IIb IIIa (setting [4]); 1.7 µM in assay [2] (setting [5]); 3.34 µM in assay [2] (setting [6]).

With `CN1C(=O)CN(CCC(=O)O)C(=O)c2cc(C#Cc3ccc(CNC(=N)N)cc3)ccc21` [Cmpd 44, 1-(methyl)-4-(2-carboxyethyl)-7-[4-(guanidinomethyl)phenyl]ethynyl-3,4-dihydro-1H-1,4-benzodiazepine-2,5-dione trifluroacetate], the IC50 in assay [1] is > 10 µM; at GP IIb IIIa (setting [3]), 0.012 µM; at GP IIb IIIa (setting [4]), 0.012 µM; in assay [2] (setting [5]), 8.8 µM; in assay [2] (setting [6]) it was 14.3 µM.

Consider `NCCCCC#Cc1ccc2c(c1)C(=O)N(CCC(=O)O)CC(=O)N2Cc1cccc([N+](=O)[O-])c1` [Cmpd 55, 1-(3-nitrobenzyl)-4-(2-carboxyethyl)-7-(6-amino-1-hexynyl)-3,4-dihydro-1H-1,4-benzodiazepine-2,5-dione trifuroacetate], for which the IC50 in assay [1] is > 10 µM; at GP IIb IIIa (setting [3]), 0.008 µM; at GP IIb IIIa (setting [4]), 0.008 µM; in assay [2] (setting [6]), 2.2 µM.

On to `N=C(N)NCCCCC#Cc1ccc2c(c1)C(=O)N(CCC(=O)O)CC(=O)N2Cc1cccc([N+](=O)[O-])c1` [Cmpd 56, 1-(3-nitrobenzyl)-4-(2-carboxyethyl)-7-(6-guanidino-1-hexynyl)-3,4-dihydro-1H-1,4-benzodiazepine-2,5-dione trifluroacetate], for which the IC50 in assay [1] was > 10 µM; on GP IIb IIIa (setting [3]), 0.006 µM; at GP IIb IIIa (setting [4]), 0.006 µM; in assay [2] (setting [6]), 15 µM.

Take `NCCCCC#Cc1ccc2c(c1)C(=O)N(CCC(=O)O)CC(=O)N2Cc1ccc(Cl)cc1` [Cmpd 60]: the IC50 in assay [1] was > 10 µM; on GP IIb IIIa (setting [3]) it was 0.014 µM; on GP IIb IIIa (setting [4]), 0.014 µM; in assay [2] (setting [5]), 2.12 µM.

For `N=C(N)NCCCCCc1ccc2c(c1)C(=O)N(CCC(=O)O)CC(=O)N2Cc1ccc(Cl)cc1` [Cmpd 63], the IC50 in assay [1] is > 10 µM; at GP IIb IIIa (setting [3]), 0.011 µM; at GP IIb IIIa (setting [4]) it was 0.011 µM; in assay [2] (setting [5]), 2.55 µM.

Consider `NCCCCCCc1ccc2c(c1)C(=O)N(CCC(=O)O)CC(=O)N2Cc1ccc(Cl)cc1` [Cmpd 64, 1-(4-chlorophenyl)methyl-4-(2-carboxyethyl)-7-(6-aminohexyl)-3,4-dihydro-1H-1,4-benzodiazapine-2,5-dione], for which the IC50 in assay [1] was > 10 µM; at GP IIb IIIa (setting [3]) it was 0.014 µM; on GP IIb IIIa (setting [4]) it was 0.014 µM; in assay [2] (setting [5]), 1.2 µM; in assay [2] (setting [6]), 4.76 µM.

As to `NCCCCCCCc1ccc2c(c1)C(=O)N(CCC(=O)O)CC(=O)N2Cc1ccc(Cl)cc1` [Cmpd 66], the IC50 was > 10 µM in assay [1], 0.026 µM on GP IIb IIIa (setting [3]), 0.026 µM at GP IIb IIIa (setting [4]) and 3.88 µM in assay [2] (setting [5]).

`NCCCCCc1ccc2c(c1)C(=O)N(CCC(=O)O)CC(=O)N2C(c1ccccc1)c1ccccc1` [Cmpd 68, 1-(diphenylmethyl)-4-(2-carboxyethyl)-7-(5-aminopentyl)-3,4-dihydro-1H-1,4-benzodiazepine-2,5-dione trifluoroacetate]: the IC50 in assay [1] is > 10 µM; at GP IIb IIIa (setting [3]), 0.02 µM; at GP IIb IIIa (setting [4]), 0.028 µM; in assay [2] (setting [5]), 1.66 µM; in assay [2] (setting [6]), 3.4 µM.

In the case of `N=C(N)NCCCCCCc1ccc2c(c1)C(=O)N(CCC(=O)O)CC(=O)N2Cc1cccc2ccccc12` [Cmpd 85, 1-(1-napthyl)methyl-4-(2-carboxyethyl)-7-(6-guanidinohexyl)-3,4-dihydro-1H-1,4-benzodiazepine-2,5-dione trifluoroacetate], the IC50 is 0.014 µM at GP IIb IIIa (setting [3]), 0.014 µM at GP IIb IIIa (setting [4]) and 6.2 µM in assay [2] (setting [5]).

Take `NCCCCCCc1ccc2c(c1)C(=O)N(CCC(=O)O)CC(=O)N2Cc1cccc(NC(=O)CCCN)c1` [Cmpd 112, 1-[3-(N-(4-aminobuturyl))aminophenyl]methyl-4-(2-carboxyethyl)-7-(6-aminohexyl)-3,4-dihydro-1H-1,4-benzodiazapine-2,5-dione bistrifluoroacetate]: the IC50 was found to be 0.008 µM on GP IIb IIIa (setting [4]), 0.008 µM at GP IIb IIIa (setting [7]) and 0.4 µM in assay [2] (setting [5]).

Take `N=C(N)NCCCCCCc1ccc2c(c1)C(=O)N(CCC(=O)O)CC(=O)N2Cc1cccc(NC(=O)CCCNC(=N)N)c1` [Cmpd 113]: the IC50 on GP IIb IIIa (setting [4]) was 0.01 µM; on GP IIb IIIa (setting [7]) it was 0.01 µM; in assay [2] (setting [5]), 0.87 µM.

For `NCCCCCCc1ccc2c(c1)C(=O)N(CCC(=O)O)CC(=O)N2Cc1cccc(NC(=O)CCCCN)c1` [Cmpd 114], the values for the IC50 (at GP IIb IIIa (setting [4]); at GP IIb IIIa (setting [7]); in assay [2] (setting [5])) were 0.008 µM, 0.008 µM and 0.31 µM, respectively.

Consider `N=C(N)NCCCCCCc1ccc2c(c1)C(=O)N(CCC(=O)O)CC(=O)N2Cc1cccc(NC(=O)CCCCNC(=N)N)c1` [Cmpd 115], for which the IC50 at GP IIb IIIa (setting [4]) was found to be 0.018 µM; on GP IIb IIIa (setting [7]) it was 0.013 µM; in assay [2] (setting [5]), 0.92 µM.

In the case of `NCCCCCCc1ccc2c(c1)C(=O)N(CCC(=O)O)CC(=O)N2Cc1cccc(NC(=O)CCCCCN)c1` [Cmpd 116], the IC50 is 0.011 µM on GP IIb IIIa (setting [4]), 0.011 µM on GP IIb IIIa (setting [7]) and 0.27 µM in assay [2] (setting [5]).

Turning to `N=C(N)NCCCCCCc1ccc2c(c1)C(=O)N(CCC(=O)O)CC(=O)N2Cc1cccc(NC(=O)CCCCCNC(=N)N)c1` [Cmpd 117], the IC50 at GP IIb IIIa (setting [4]) was 0.013 µM; on GP IIb IIIa (setting [7]), 0.013 µM; in assay [2] (setting [5]), 0.64 µM.

With `NCCCCCCc1ccc2c(c1)C(=O)N(CCC(=O)O)CC(=O)N2Cc1cccc(N)c1` [Cmpd 122], the IC50 on GP IIb IIIa (setting [4]) was found to be 0.01 µM; at GP IIb IIIa (setting [7]), 0.012 µM; in assay [2] (setting [5]), 0.49 µM.

In the case of `CCCCC(=O)Nc1cccc(CN2C(=O)CN(CCC(=O)O)C(=O)c3cc(CCCCCCN)ccc32)c1` [Cmpd 123], the figures for the IC50 (on GP IIb IIIa (setting [4]); on GP IIb IIIa (setting [7]); in assay [2] (setting [5])) were 0.015 µM, 0.015 µM and 0.64 µM, respectively.

Consider `CCCCC(=O)Nc1cccc(CN2C(=O)CN(CCC(=O)O)C(=O)c3cc(CCCCCCNC(=N)N)ccc32)c1` [Cmpd 124], for which the IC50 is 0.012 µM on GP IIb IIIa (setting [4]), 0.012 µM on GP IIb IIIa (setting [7]) and 2.76 µM in assay [2] (setting [5]).

Consider `N=C(N)Nc1ccc(C(=O)Nc2cccc(CN3C(=O)CN(CCC(=O)O)C(=O)c4cc(CCCCCCN)ccc43)c2)cc1` [Cmpd 127, 1-(3-(4-guanidinobenzoyl)aminophenyl)methyl-4-(2-carboxyethyl)-7-(6-aminohexyl)-3,4-dihydro-1H-1,4-benzodiazapine-2,5-dione], for which the IC50 on GP IIb IIIa (setting [4]) is 0.008 µM; on GP IIb IIIa (setting [7]), 0.008 µM; in assay [2] (setting [5]), 0.35 µM.
